Laboratory results reported in patent US20250281433A1, “NOVEL DERIVATIVE COMPOUND HAVING BIPHENYL GROUP INTRODUCED INTO AMINO-ALKANOIC ACID AND ANTI-INFLAMMATORY COMPOSITION COMPRISING SAME” (AMTIXBIO CO., LTD., priority 2020, published 2025).

Columns and labels:
[1] = test system: psoriasis-related cytokine genes IL-17A, IL-17F, IL-23A (p19), IL-12A (p35), IL-12B (p40), IL-1β; test: Aldara cream-induced mouse psoriasis model: qRT-PCR of dorsal skin; format: in vivo; settings: dorsal skin RNA, normalized to 18s rRNA; topical; Compound 51 1%, Betamethasone 0.05%; versus Veh
Experimental: (§1) After dissolving the test substance (Compound 51 of the present invention) using DMSO (Dimethyl sulfoxide, Sigma, Cat No. 472301), an appropriate concentration was prepared with PBS (HyClone, Cat No. SH30028.02). The transdermal test substance was prepared by dissolving the test substance in 100% ethanol (Medchem, Cat No. HY-13571). Betamethasone dipropionate (Sigma, Cat No. D1756, Lot No. BCBW7684), a positive control, was dissolved in DMSO, and PEG400 (Sigma, Cat. No. 06855) and 30% ethanol (Daejung, Cat. No. 4023-4100) were added to the mixture obtained above. The same vehicle was used for the negative control in the same way as the positive control specimen preparation.
(§2) BALB/c mice (purchased through JA BIO, 27 males, 8 weeks old) were acclimatized for one week. After the mice were anesthetized with isoflurane 3 days before the application of Aldara cream, the hair on the back (3×3 cm) was removed using a clipper. The remaining hair was completely removed by leaving the hair removal cream for 1 minute. The mice were left for 72 hours to heal the wounds. To induce psoriasis, Aldera Cream (5% Imiquimod, Dong-A ST) 62.5 mg was applied at the same time point (AM 10:00) once/day 7 times, and 150 μl of test substance or positive control was applied from the 4th day at the same time point (PM 14:00) for 4 days. […]

[2] = test system: psoriasis symptoms induced by Aldara cream in BALB/c mice; test: Aldara cream-induced mouse psoriasis model: skin lesions / PASI score; format: in vivo; settings: topical 150 μl for 4 days from 4th day, Compound 51 1%, Betamethasone 0.05%, versus Veh
Experimental: as §1
BALB/c mice (purchased through JA BIO, 27 males, 8 weeks old) were acclimatized for one week. After the mice were anesthetized with isoflurane 3 days before the application of Aldara cream, the hair on the back (3×3 cm) was removed using a clipper. The remaining hair was completely removed by leaving the hair removal cream for 1 minute. The mice were left for 72 hours to heal the wounds. To induce psoriasis, Aldera Cream (5% Imiquimod, Dong-A ST) 62.5 mg was applied at the same time point (AM 10:00) once/day 7 times, and 150 μl of test substance or positive control was applied from the 4th day at the same time point (PM 14:00) for 4 days. The composition of each test group was as follows. a) Con: Normal+excipient application group: 8 animals; b) Veh: Aldara cream+excipient application group: 8 animals; c) Beta: Aldara+Betamethasone 0.05% applied group: 8 animals; and d) Compound 51 1%: Aldara+Compound 51 1% application group: 3 animals. The autopsy proceeded in a non-fasting state, and the dorsal skin was removed from each mouse, rapidly frozen in liquid nitrogen, and stored at −80° C. before for the subsequent experiments.
After taking pictures on the 0th, 4th, and 8th days to measure the skin index values, they were visually observed and recorded to measure the degree of skin lesions on the dorsal area. The condition of psoriasis skin lesions in each group was scored according to the evaluation index (erythema, skin thickness, dead skin cells) as None (0), Weak (1), Moderate (2), Severe (3), Very Severe (4) and set the score, and by summing up the scores of the three items, an evaluation score between a minimum of 0 and a maximum of 12 was calculated. […] After taking pictures in all groups on the 0th, 4th and 8th days, the evaluation indexes (erythema, skin thickness, and dead skin cells) of the psoriasis skin lesions in each group were graphed.

[3] = test system: psoriasis symptoms induced by Aldara cream in BALB/c mice; test: Aldara cream-induced mouse psoriasis model: evaluation of scratching; format: in vivo; settings: 8th day; topical; Compound 51 1%, Betamethasone 0.05%; versus Veh
Experimental: as §1, §2

[4] = test system: IL-6 production in RAW264.7 cells; test: LPS-induced IL-6 production in RAW264.7 cells (ELISA); format: cell-based, mouse; settings: for Relative amount of IL-6 compared to LPS induction (%): Table 3, compounds at 8 μg/mL (FIG. 1), LPS alone = 100%
Experimental: The inhibitory effect on induced IL-6 cytokine production was analyzed. RAW264.7 cells (obtained from the Korean Cell Line Bank) were seeded at a density of 5×10^5 cells/well in a 12-well plate and stabilized in a CO2 incubator at 37° C. with 5% carbon dioxide and saturated humidity. After 24 hours of incubation, the compounds of the present invention were prepared in DMEM at concentrations of 0 μg/mL or 8 μg/mL and pre-treated for 30 minutes. Next, lipopolysaccharide (LPS, Sigma-Aldrich, Cat No. L2887) was treated to a concentration of 1 μg/mL to induce an inflammatory response for 24 hours. Subsequently, mouse IL-6 ELISA kit (Labiskoma, Cat No. K0331230P) and mouse TNF-α ELISA kit (Labiskoma, Cat No. K0331186P) were used according to the manufacturer's instructions, and absorbance was measured. FK506 (FK-506 monohydrate, manufacturer: MilliporeSigma, product number: F4679, U.S.A) was used as a control substance.
After inducing inflammation as described in (1) and (2) above, the supernatant was collected, and the quantification of IL-6 in the supernatant was performed using the IL-6 ELISA kit (Mouse IL-6 ELISA Kit, pink-ONE, manufactured by Komabiotech, Product No. K0331230P) according to the manufacturer's instructions. Specifically, the amount of IL-6 in the supernatant was quantified according to the ELISA kit protocol, and the absorbance was measured at OD 450 nm using a microplate reader (Multiskan Sky, manufactured by Thermo Fisher Scientific). […] In Table 1 to Table 3, FIG. 1, and FIG. 2, the relative values of IL-6 generated after pretreatment with the compounds of the present invention were expressed as a percentage relative to the IL-6 production (100%) induced by LPS, TNF-α, or IFN-β treatment.

In the case of `CCC(=O)OCC(=O)[C@@]1(OC(=O)CC)[C@@H](C)C[C@H]2[C@@H]3CCC4=CC(=O)C=C[C@]4(C)[C@@]3(F)[C@@H](O)C[C@@]21C` [Beta, Betamethasone dipropionate, reference compound], the “psoriasis-related cytokine genes (IL-17A, IL-17F, IL-23A (p19), IL-12A (p35), IL-12B (p40), IL-1β) expression” value [1] was “significantly reduced”, the “skin lesions (pictures, visual)” value ([2]; 8th day) was “visually improved” and the “PASI Score” value ([2]; p<0.001) was “significantly decreased”. The “pruritus (scratching counts, 30 minutes)” value [3] was “significant decrease”.
In the case of `CCCCC(N)C(=O)NCc1ccc(-c2ccc(C(F)(F)F)cc2)cc1.Cl` (racemic) [Compound 48, (R)/(S)-2-amino-N-((4′-(trifluoromethyl)-[1,1′-biphenyl]-4-yl)methyl)hexanamide hydrochloride], the “Relative amount of IL-6 compared to LPS induction (%)” value (shortened to “Relative amount … (%)”) ([4]; LPS 1 μg/mL 24 h) was 67%.
In the case of `C=CC[C@@H]1/C=C(\C)C[C@H](C)C[C@H](OC)[C@H]2O[C@@](O)(C(=O)C(=O)N3CCCC[C@H]3C(=O)O[C@H](/C(C)=C/[C@@H]3CC[C@@H](O)[C@H](OC)C3)[C@H](C)[C@@H](O)CC1=O)[C@H](C)C[C@@H]2OC` [FK506, FK-506 monohydrate, reference compound], the “IL-6” value ([4]; Table 1, LPS 1 μg/mL 24 h, compound 77 at 8 μg/ml, FK506 concentration not given) was 656.86 pg/mL and the “IL-6 (%)” value ([4]; Table 1, relative to IL-6 production induced by LPS (100%), compound 77 at 8 μg/ml, FK506 concentration not given) was 45.31%.
For `CCCC(N)C(=O)NCc1ccc(-c2ccc(Cl)c(Cl)c2)cc1.Cl` (racemic) [Compound 45, (R)/(S)-2-amino-N-((3′,4′-dichloro-[1,1′-biphenyl]-4-yl)methyl)pentanamide hydrochloride], the “Relative amount … (%)” value ([4]; LPS 1 μg/mL 24 h) was 3%.
`CCCC(NC)C(=O)NCc1ccc(-c2ccc(C(F)(F)F)cc2)cc1.Cl` (racemic) [Compound 52, (R)/(S)-2-(methylamino)-N-((4′-(trifluoromethyl)-[1,1′-biphenyl]-4-yl)methyl)pentanamide hydrochloride] was tested, and the “Relative amount … (%)” value ([4]; LPS 1 μg/mL 24 h) was 13%.
`CCCC(C(=O)Nc1ccc(-c2ccc(Cl)c(Cl)c2)cc1)N(C)C` (racemic) [Compound 36, (R)/(S)—N-(3′,4′-dichloro-[1,1′-biphenyl]-4-yl)-2-(dimethylamino)pentanamide] was tested, and the “Relative amount … (%)” value ([4]; LPS 1 μg/mL 24 h) was 9%.
With `CCC(NC)C(=O)NCCc1ccc(-c2ccc(Cl)c(Cl)c2)cc1.Cl` (racemic) [Compound 83, (R)/(S)—N-(2-(3′,4′-dichloro-[1,1′-biphenyl]-4-yl)ethyl)-2-(methylamino)butanamide hydrochloride] the “Relative amount … (%)” value ([4]; LPS 1 μg/mL 24 h) was 9%.
In the case of `CCCC(N)C(=O)NCc1ccc(-c2ccc(C(F)(F)F)cc2)cc1.Cl` (racemic) [Compound 47, (R)/(S)-2-amino-N-((4′-(trifluoromethyl)-[1,1′-biphenyl]-4-yl)methyl)pentanamide hydrochloride], the “Relative amount … (%)” value ([4]; LPS 1 μg/mL 24 h) was 12%.
`CCC(N)C(=O)NCCc1ccc(-c2ccc(C(F)(F)F)cc2)cc1.Cl` (racemic) [Compound 76, (R)/(S)-2-amino-N-(2-(4′-(trifluoromethyl)-[1,1′-biphenyl]-4-yl)ethyl)butanamide hydrochloride] was tested, and the “Relative amount … (%)” value ([4]; LPS 1 μg/mL 24 h) was 9.58%.
In the case of `CCCC(N)C(=O)NCCc1ccc(-c2ccc(OC(F)(F)F)cc2)cc1.Cl` (racemic) [Compound 80, (R)/(S)-2-amino-N-(2-(4′-(trifluoromethoxy)-[1,1′-biphenyl]-4-yl)ethyl)pentanamide hydrochloride], the “Relative amount … (%)” value ([4]; LPS 1 μg/mL 24 h) was 6%.
In the case of `CCCC(C(=O)NCc1ccc(-c2ccc(Cl)c(Cl)c2)cc1)N(C)C` (racemic) [Compound 53, (R)/(S)—N-((3′,4′-dichloro-[1,1′-biphenyl]-4-yl)methyl)-2-(dimethylamino)pentanamide], the “Relative amount … (%)” value ([4]; LPS 1 μg/mL 24 h) was 5%.
For `CCCC(NC)C(=O)NCCc1ccc(-c2ccc(C(F)(F)F)cc2)cc1.Cl` (racemic) [Compound 87, (R)/(S)-2-(methylamino)-N-(2-(4′-(trifluoromethyl)-[1,1′-biphenyl]-4-yl)ethyl)pentanamide hydrochloride], the “Relative amount … (%)” value ([4]; LPS 1 μg/mL 24 h) was 24%.
`CCCC(N)C(=O)NCCc1ccc(-c2ccc(F)c(F)c2)cc1.Cl` (racemic) [Compound 82, (R)/(S)-2-amino-N-(2-(3′,4′-difluoro-[1,1′-biphenyl]-4-yl)ethyl)pentanamide hydrochloride] was tested, and the “Relative amount … (%)” value ([4]; LPS 1 μg/mL 24 h) was 3%.
In the case of `CCCC(N)C(=O)NCc1ccc(-c2ccc(OC(F)(F)F)cc2)cc1.Cl` (racemic) [Compound 49, (R)/(S)-2-amino-N-((4′-(trifluoromethoxy)-[1,1′-biphenyl]-4-yl)methyl)pentanamide hydrochloride], the “Relative amount … (%)” value ([4]; LPS 1 μg/mL 24 h) was 50%.
With `CCCCC(N)C(=O)NCc1ccc(-c2ccc(OC(F)(F)F)cc2)cc1.Cl` (racemic) [Compound 50, (R)/(S)-2-amino-N-((4′-(trifluoromethoxy)-[1,1′-biphenyl]-4-yl)methyl)hexanamide hydrochloride] the “Relative amount … (%)” value ([4]; LPS 1 μg/mL 24 h) was 68%.
`CCCC(N)C(=O)Nc1ccc(-c2ccc(OC(F)(F)F)cc2)cc1.Cl` (racemic) [Compound 32, (R)/(S)-2-amino-N-(4′-(trifluoromethoxy)-[1,1′-biphenyl]-4-yl)pentanamide hydrochloride] was tested, and the “Relative amount … (%)” value ([4]; LPS 1 μg/mL 24 h) was 16%.
